Measured values reported in ChEMBL document CHEMBL3992552, “Mechanisms of action and structure-activity relationships of cytotoxic flavokawain derivatives” (Bioorg Med Chem, 2017).
pIC50: −log10 of the molar value. Activity calls are given as the source filed them. No cut-off for these calls is given here.

Assays:
HCT-116 [1] = experiment: Induction of apoptosis in human HCT116 cells harboring wild-type p53 assessed as upregulation of p21 measured after 48 hrs by Hoechst staining based fluorescence assay; assay type: functional, cell-based
[2] = Selectivity index, ratio of IC50 for human fibroblasts to IC50 for human PC3 cells
PC-3 [3] = experiment: Induction of apoptosis in human PC3 cells harboring p53 mutant assessed as upregulation of cyclinB1 after 48 hrs by Hoechst staining based assay; assay type: functional, cell-based
HaCaT [4] = experiment: Cell cycle arrest in human HaCaT cells harboring […] p53 assessed as accumulation at S phase at 10 uM measured after 48 hrs by Hoechst/BrdU staining based fluorescence assay (reference value: 52.3%); assay type: functional
NCI-H727 [5] = experiment: Cell cycle arrest in human NCI-H727 cells harboring p53 mutant assessed as accumulation at S phase at 10 uM measured after 48 hrs by Hoechst/BrdU staining based fluorescence assay (reference value: 40.3%); assay type: functional
HaCaT [6] = experiment: Cell cycle arrest in human HaCaT cells harboring […] p53 assessed as mitotic index at 10 uM measured after 48 hrs by Hoechst staining based fluorescence assay (reference value: 2.6); assay type: functional
[7] = Selectivity index, ratio of IC50 for human fibroblasts to IC50 for human MCF7 cells
HCT-116 [8] = experiment: Cell cycle arrest in human HCT116 cells harboring wild-type p53 assessed as accumulation at S phase at 10 uM measured after 48 hrs by Hoechst/BrdU staining based fluorescence assay (reference value: 68.4%); assay type: functional
PC-3 [9] = experiment: Induction of apoptosis in human PC3 cells harboring p53 mutant assessed as increase in early apoptosis at 2 times IC50 after 48 hrs by YoPro/propidium iodide/Hoechst staining based assay; assay type: functional, cell-based
MDA-MB-231 [10] = experiment: Cell cycle arrest in human MDA-MB-231 cells harboring p53 mutant assessed as accumulation at S phase at 25 uM measured after 48 hrs by Hoechst/BrdU staining based fluorescence assay (reference value: 42.2%); assay type: functional
Huh-7 [11] = experiment: Cell cycle arrest in human HuH7 cells assessed as accumulation at S phase at 25 uM measured after 48 hrs by Hoechst/BrdU staining based fluorescence assay (reference value: 44%); assay type: functional
Huh-7 [12] = experiment: Cytotoxicity against human HuH7 cells assessed as cell viability after 48 hrs by Hoechst 33342 staining based assay; assay type: functional; details: Huh-7, 48 h
MDA-MB-231 [13] = experiment: Cell cycle arrest in human MDA-MB-231 cells harboring p53 mutant assessed as mitotic index at 25 uM measured after 48 hrs by Hoechst staining based fluorescence assay (reference value: 2.1); assay type: functional
Caco-2 [14] = experiment: Cytotoxicity against human Caco2 cells assessed as cell viability after 48 hrs by Hoechst 33342 staining based assay; assay type: functional; details: Caco-2, 48 h
HCT-116 [15] = experiment: Cell cycle arrest in human HCT116 cells harboring wild-type p53 assessed as mitotic index at 25 uM measured after 48 hrs by Hoechst staining based fluorescence assay (reference value: 2.3); assay type: functional
[16] = Selectivity index, ratio of IC50 for human fibroblasts to IC50 for human RL cells
HCT-116 [17] = experiment: Cell cycle arrest in human HCT116 cells harboring wild-type p53 assessed as accumulation at S phase at 25 uM measured after 48 hrs by Hoechst/BrdU staining based fluorescence assay (reference value: 68.4%); assay type: functional
HaCaT [18] = experiment: Cell cycle arrest in human HaCaT cells assessed as accumulation at M phase by Hoechst staining based fluorescence assay; assay type: functional
NCI-H727 [19] = experiment: Cell cycle arrest in human NCI-H727 cells harboring p53 mutant assessed as accumulation at S phase at 25 uM measured after 48 hrs by Hoechst/BrdU staining based fluorescence assay (reference value: 40.3%); assay type: functional
HCT-116 [20] = experiment: Induction of apoptosis in human HCT116 cells harboring wild-type p53 assessed as increase in late apoptosis at 2 times IC50 after 48 hrs by YoPro/propidium iodide/Hoechst staining based assay; assay type: functional, cell-based
Caco-2 [21] = experiment: Cell cycle arrest in human Caco2 cells assessed as mitotic index at 25 uM measured after 48 hrs by Hoechst staining based fluorescence assay (reference value: 3.6); assay type: functional
Caco-2 [22] = experiment: Cell cycle arrest in human Caco2 cells assessed as mitotic index at 10 uM measured after 48 hrs by Hoechst staining based fluorescence assay (reference value: 3.6); assay type: functional
MCF7 = experiment: Induction of apoptosis in human MCF7 cells harboring wild-type p53 assessed as upregulation of cyclinB1 measured after 18 hrs by Hoechst staining based assay; assay type: functional, cell-based
PC-3 [23] = experiment: Cell cycle arrest in human PC3 cells harboring p53 mutant assessed as accumulation at S phase at 10 uM measured after 48 hrs by Hoechst/BrdU staining based fluorescence assay (reference value: 40.8%); assay type: functional
PC-3 [24] = experiment: Cell cycle arrest in human PC3 cells harboring p53 mutant assessed as mitotic index at 25 uM measured after 48 hrs by Hoechst staining based fluorescence assay (reference value: 2.5); assay type: functional
MDA-MB-231 [25] = experiment: Cytotoxicity against human MDA-MB-231 cells assessed as cell survival at 50 uM after 48 hrs by Hoechst 33342 staining based assay relative to control; assay type: functional; details: MDA-MB-231, 48 h, read-out: Survival
Fibroblast = experiment: Cytotoxicity against human fibroblasts assessed as cell viability after 48 hrs by Hoechst 33342 staining based assay
MDA-MB-231 [26] = experiment: Cytotoxicity against human MDA-MB-231 cells assessed as cell viability after 48 hrs by Hoechst 33342 staining based assay; assay type: functional; details: MDA-MB-231, 48 h
Huh-7 [27] = experiment: Cell cycle arrest in human HuH7 cells assessed as mitotic index at 10 uM measured after 48 hrs by Hoechst staining based fluorescence assay (reference value: 2.2); assay type: functional
HCT-116 [28] = experiment: Cell cycle arrest in human HCT116 cells harboring wild-type p53 assessed as mitotic index at 10 uM measured after 48 hrs by Hoechst staining based fluorescence assay (reference value: 2.3); assay type: functional
PC-3 [29] = experiment: Induction of apoptosis in human PC3 cells harboring p53 mutant assessed as increase in late apoptosis at 2 times IC50 after 48 hrs by YoPro/propidium iodide/Hoechst staining based assay; assay type: functional, cell-based
PC-3 [30] = experiment: Cell cycle arrest in human PC3 cells harboring p53 mutant assessed as accumulation at S phase at 25 uM measured after 48 hrs by Hoechst/BrdU staining based fluorescence assay (reference value: 40.8%); assay type: functional
Huh-7 [31] = experiment: Cell cycle arrest in human HuH7 cells assessed as mitotic index at 25 uM measured after 48 hrs by Hoechst staining based fluorescence assay (reference value: 2.2); assay type: functional
MDA-MB-231 [32] = experiment: Cell cycle arrest in human MDA-MB-231 cells harboring p53 mutant assessed as mitotic index at 10 uM measured after 48 hrs by Hoechst staining based fluorescence assay (reference value: 2.1); assay type: functional
[33] = Selectivity index, ratio of IC50 for human fibroblasts to IC50 for human NCI-H727 cells
PC-3 [34] = experiment: Cell cycle arrest in human PC3 cells harboring p53 mutant assessed as mitotic index at 10 uM measured after 48 hrs by Hoechst staining based fluorescence assay (reference value: 2.5); assay type: functional
MDA-MB-231 [35] = experiment: Induction of apoptosis in human MDA-MB-231 cells harboring p53 mutant assessed as increase in early apoptosis at 2 times IC50 after 24 hrs by YoPro/propidium iodide/Hoechst staining based assay; assay type: functional, cell-based
[36] = Selectivity index, ratio of IC50 for human fibroblasts to IC50 for human HuH7 cells

| SMILES | Activity (HCT-116 [1]) | Ratio IC50 [2] | Activity (PC-3 [3]) | Activity (HaCaT [4]) | Activity (NCI-H727 [5]) | Ratio IC50 [7] | Activity (HCT-116 [8]) | Activity (PC-3 [9]) | Activity (MDA-MB-231 [10]) | Activity (Huh-7 [11]) | pIC50 (Huh-7 [12]) | pIC50 (Caco-2 [14]) | Activity_index (HCT-116 [15]) | Ratio IC50 [16] | Activity (HCT-116 [17]) | Activity (NCI-H727 [19]) | Activity (HCT-116 [20]) | Activity_index (Caco-2 [21]) | Activity_index (Caco-2 [22]) | Activity (MCF7) | further results |
| --- | --- | --- | --- | --- | --- | --- | --- | --- | --- | --- | --- | --- | --- | --- | --- | --- | --- | --- | --- | --- | --- |
| COc1cc(O)c(C(=O)/C=C/c2ccccc2OC)c(OC)c1 | Active | 3.8 | Active | 49% | 43% | 3.5 | 42% | Active | inactive | inactive | < 4.70 | 5.00 | 1.8 | 3.6 | 27% | 14% | Active | 21.5 | 6.8 | Active | Activity_index (HaCaT [6]): 3.1; Activity (MDA-MB-231 [13]): inactive; Activity (HaCaT [18]): Active; Activity (PC-3 [23]): 36%; Activity_index (PC-3 [24]): 7.2; viability at 50 µM (MDA-MB-231 [25]): 37%; pIC50 (Fibroblast): < 4.70; pIC50 (MDA-MB-231 [26]): < 4.70; Activity (Huh-7 [27]): inactive; Activity_index (HCT-116 [28]): 1.2; Activity (PC-3 [29]): Active; Activity (PC-3 [30]): 24%; Activity (Huh-7 [31]): inactive; Activity (MDA-MB-231 [32]): inactive; Ratio IC50 [33]: 3.3; Activity_index (PC-3 [34]): 2.9 |
| COc1cc(O)c(C(=O)/C=C/c2ccccc2)c(OC)c1 [FLAVOKAWAIN B] | Active | 2.9 | Active | 50% | 39% | 1.7 | 37% | Active | 40% | 30% | 4.80 | 5.00 | 0.6 | 3.2 | 28% | 7% | Active | 19.3 | 9.7 | Active | Activity_index (HaCaT [6]): 3.4; Activity (MDA-MB-231 [35]): Active; Activity_index (MDA-MB-231 [13]): 6.8; Activity (PC-3 [23]): 35%; Activity_index (PC-3 [24]): 2; viability at 50 µM (MDA-MB-231 [25]): 19%; pIC50 (Fibroblast): < 4.70; pIC50 (MDA-MB-231 [26]): 4.79; Activity_index (Huh-7 [27]): 2.2; Activity_index (HCT-116 [28]): 1.1; Activity (PC-3 [29]): Active; Activity (PC-3 [30]): 20%; Activity_index (Huh-7 [31]): 1.7; Activity_index (MDA-MB-231 [32]): 5.2; Ratio IC50 [33]: 2.3; Ratio IC50 [36]: 1.7; Activity_index (PC-3 [34]): 4.2 |
| COc1cc(O)c(C(=O)/C=C/c2ccc(F)cc2)c(OC)c1 | Active | >3.8 | Active | inactive | inactive | >5.7 | 59% | Active | inactive | inactive | < 4.70 | 5.04 | 0.7 | >5.4 | 28% | inactive | Active | 24.8 | 6.3 | Active | Activity (HaCaT [6]): inactive; Activity (MDA-MB-231 [13]): inactive; Activity (PC-3 [23]): 37%; Activity_index (PC-3 [24]): 5.3; viability at 50 µM (MDA-MB-231 [25]): 69%; pIC50 (Fibroblast): < 4.70; pIC50 (MDA-MB-231 [26]): < 4.70; Activity (Huh-7 [27]): inactive; Activity_index (HCT-116 [28]): 1.2; Activity (PC-3 [29]): Active; Activity (PC-3 [30]): 34%; Activity (Huh-7 [31]): inactive; Activity (MDA-MB-231 [32]): inactive; Activity_index (PC-3 [34]): 2.9 |
| COc1cc(O)c(C(=O)/C=C/c2ccccc2SC)c(OC)c1 | Active | 4.1 | Active | 51% | 43% | 2.3 | 52% | Active | inactive | 37% | 4.78 | 5.02 | 1.3 | 4.1 | 28% | 12% | Active | 21.9 | 6 | Active | Activity_index (HaCaT [6]): 3.1; Activity (MDA-MB-231 [13]): inactive; Activity (HaCaT [18]): Active; Activity (PC-3 [23]): 35%; Activity_index (PC-3 [24]): 7.6; viability at 50 µM (MDA-MB-231 [25]): 39%; pIC50 (Fibroblast): < 4.70; pIC50 (MDA-MB-231 [26]): < 4.70; Activity_index (Huh-7 [27]): 2.3; Activity_index (HCT-116 [28]): 0.8; Activity (PC-3 [29]): Active; Activity (PC-3 [30]): 31%; Activity_index (Huh-7 [31]): 5.3; Activity (MDA-MB-231 [32]): inactive; Ratio IC50 [33]: 4; Ratio IC50 [36]: 2.2; Activity_index (PC-3 [34]): 4.4 |
| COc1cccc(/C=C/C(=O)c2c(O)cc(OC)cc2OC)c1 | Active | 3.7 | Active | 49% | 35% | 2.6 | 30% | Active | 38% | 8.5% | 4.82 | 4.95 | 0.3 | 3 | 37% | 1.4% | Active | 6.1 | 14.4 | Active | Activity_index (HaCaT [6]): 2.6; Activity (MDA-MB-231 [35]): Active; Activity_index (MDA-MB-231 [13]): 3.6; Activity (PC-3 [23]): 39%; Activity_index (PC-3 [24]): 0.4; viability at 50 µM (MDA-MB-231 [25]): 11%; pIC50 (Fibroblast): < 4.70; pIC50 (MDA-MB-231 [26]): 4.88; Activity_index (Huh-7 [27]): 1.6; Activity_index (HCT-116 [28]): 1.2; Activity (PC-3 [29]): Active; Activity (PC-3 [30]): 9.4%; Activity_index (Huh-7 [31]): 0.1; Activity_index (MDA-MB-231 [32]): 4.2; Ratio IC50 [33]: 1.8; Ratio IC50 [36]: 1.8; Activity_index (PC-3 [34]): 4.4 |
